Results on seven compounds are retold here after patent US20250288591A1, “TRIMEPRAZINE FOR USE IN TREATING TRIGEMINAL NEURALGIA AND FOR REDUCING PAIN RELATED THERETO” (UNDAUNTED BIO, INC., priority 2022, published 2025).

One data set deals with histamine H1-receptor. To be noted: more potent than Z-triprolidine; cited from earlier work.
A further data set deals with mu-opioid receptors (Homo sapiens, UniProt P35372). Particulars: relative to morphine; cited from earlier work.
The conditions of data set [1]: 23 patients, add-on therapy; cited from earlier work.
For data set [2] the following is noted: 10 patients with TN; cited from earlier work.
The conditions of data set [3]: 100-400 mg/d; 8 patients with classic TN; cited from earlier work.
For data set [4] the following is noted: PHN; study in Japan; cited from earlier work.
Data set [5] is described as follows: Case report: patient with classic trigeminal neuralgia treated with trimeprazine. It is filed as in vivo, human. From the text: A middle-aged patient suffers from classic trigeminal neuralgia presenting with sharp, lancinating, severe pain in their left face precipitated by showering, eating, facial animation, touch of their facial skin and nose, and brushing their teeth. The episodes of pain are initiated by the stimuli above and immediately stop all other activity until they subside in several seconds. Their behavior is modified to avoid the stimuli above, even affecting how they speak and eats. […] Their daily activities are dominated by fear of inducing another attack. […] They had no remedy for these terrible pains before treatment with trimeprazine. The patient began treatment with trimeprazine 5 mg morning and evening. The second day of the course the intensity and frequency of the attacks were in decline. […] Since then, they have noted some discomfort in their face but not the sharp, almost unbearable pain of before. […] On most days they take no medication now. […] They note that this is a common side-effect for them to experience if a medication has any potential for causing drowsiness.

Data set [6] is described as follows: Observed effect of trimeprazine on pain of post-herpetic neuralgia and trigeminal neuralgia. To be noted: in vivo. From the text:
Post-herpetic pain involves the dorsal root ganglion (DRG), and trigeminal neuralgia involves the trigeminal ganglion (TG). Both the DRG and the TG are involved in the perception of itch and pain. Chronic neuropathic pain is a hypersensitivity state that results from peripheral and central sensitization. It is increasingly appreciated that chronic itch and chronic cough are also hypersensitivity syndromes.

For data set [7] the following is noted: after application of 5% lidocaine plaster to skin; cited from earlier work.

Sequence of mu-opioid receptors (P35372 whole entry): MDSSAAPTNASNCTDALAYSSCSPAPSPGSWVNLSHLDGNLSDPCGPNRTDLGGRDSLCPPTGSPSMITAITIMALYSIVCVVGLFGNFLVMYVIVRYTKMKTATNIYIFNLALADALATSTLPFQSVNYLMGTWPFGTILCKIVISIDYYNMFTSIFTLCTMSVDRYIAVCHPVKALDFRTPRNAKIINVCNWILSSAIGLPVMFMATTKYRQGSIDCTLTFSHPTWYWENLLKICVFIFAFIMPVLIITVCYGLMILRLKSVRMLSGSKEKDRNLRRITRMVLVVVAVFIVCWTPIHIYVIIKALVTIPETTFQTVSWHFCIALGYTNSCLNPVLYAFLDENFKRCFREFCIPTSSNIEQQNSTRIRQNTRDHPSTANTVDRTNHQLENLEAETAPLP

For the compound `Cc1ccc(/C(=C\CN2CCCC2)c2ccccn2)cc1` [E-triprolidine], the “potency relative to Z-triprolidine” value with histamine H1-receptor was 1000 fold.

For the compound `CC[C@@H](c1cccc(O)c1)[C@@H](C)CN(C)C` [Tapentadol], the “potency in binding mu-opioid receptors, times less potent than morphine” value at mu-opioid receptors was 18 times.

As to `CC[C@@H](C(N)=O)N1CCCC1=O` [levetiracetam, Levetiracetam], in data set [1], the “reduction in number of daily attacks” value was 62%. Moreover, in data set [2], the improvement is listed as 50-90%. With `CC1(C)O[C@@H]2[C@@H](CO[C@@]3(COS(N)(=O)=O)OC(C)(C)O[C@@H]23)O1` [Topiramate], in data set [3], the “patients in whom the drug was found effective” value is recorded as 75%. For `CC(C)C[C@H](CN)CC(=O)O` [pregabalin, Pregabalin], the “analgesic property relative to gabapentin” value in data set [4] was 6 times. For the compound `CC(CN(C)C)CN1c2ccccc2Sc2ccccc21` (stereo not drawn) [trimeprazine], the side-effects entry in [5] (5 mg tablets, one patient) is reported as “no side-effects other than drowsiness”. For the same compound, the pain entry in data set [5] (after four days of medication, 5 mg morning and evening) is given as “all pain was gone”. Moreover, the “residual discomfort in face” value in data set [5] (later use, ½ to 1 pill of 5 mg once or twice a day) was “successfully alleviated”. For the same compound, in data set [5] (second day of the course, 5 mg morning and evening, one patient), the “intensity and frequency of the attacks” value was “in decline”. For the same compound, the “effect on pain of post-herpetic neuralgia and trigeminal neuralgia” value in [6] is “observed to treat the pain”.

For the compound `CCN(CC)CC(=O)Nc1c(C)cccc1C` [Lidocaine], the “share of the drug that reaches the systemic circulation” value in data set [7] was 3%.
